In patent publication US20110280940A1, “Di-Vanilloyl And Tri-Vanilloyl Derivatives For Use In Anti-Cancer Therapy” (priority 2008, published 2011):
Read-outs that look alike come from different tables or passages of the source.

What was measured:
[1] = test system: Eleven human cancer cell lines; experiment: MTT colorimetric assay, across the eleven human cancer cell lines; assay type: cell-based
Method in brief: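 Growth is measured as remaining living cells relative to untreated controls after 72 h at 37 °C with compound at 10^-8 to 10^-4 M. Readout is MTT formazan absorbance at 570 nm.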

Aurora C kinase = molecular target: T1, Aurora C kinase (Homo sapiens, UniProt Q9UQB9); experiment: Radiometric protein kinase assay (33 PanQinase), Aurora C; assay type: biochemical; conditions: for IC50: dose-response 0-100 μM, n=3, read-out: IC50: Concentration of drug needed in order to inhibit kinase activity by 50%, AurC; for inhibition at 57 µM: read-out: inhibition of Aurora C activity
T1 construct: made in house
T1 sequence (Q9UQB9 1-309): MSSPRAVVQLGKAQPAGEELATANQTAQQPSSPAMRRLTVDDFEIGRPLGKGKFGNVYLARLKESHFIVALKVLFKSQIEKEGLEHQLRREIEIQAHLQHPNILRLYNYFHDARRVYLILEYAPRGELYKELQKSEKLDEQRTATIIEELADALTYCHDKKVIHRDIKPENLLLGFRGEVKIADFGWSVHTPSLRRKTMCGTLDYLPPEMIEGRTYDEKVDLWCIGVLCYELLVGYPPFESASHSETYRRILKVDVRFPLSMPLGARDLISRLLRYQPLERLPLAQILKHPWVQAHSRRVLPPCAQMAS
Protocol: Note that at a concentration of 20 μM of the DLT compounds, the activity of the three Aurora kinases is reduced by approximately 40-50%, whereas at concentrations of 50 μM, i.e. the concentration used in the anti-proliferation assays of example 2B, the activity of said kinases is reduced by 60-75%.
The kinase inhibition profile of DLT95-Cl at 20 μM was determined using 255 protein kinases. Residual activity values were measured by testing each compound at one concentration in duplicate in each kinase assay. A radiometric protein kinase assay (33 PanQinase®Activity Assay) was used for measuring the kinase activity of 250 protein kinases. All kinase assays were performed in 96-well flashPlates™ from Perkin Elmer (Boston, Mass., USA) in a 50 μl reaction volume. The reaction cocktail was pipetted in 4 steps in the following order: • 10 μl of non-radioactive ATP solution (in H2O) • 25 μl of assay buffer/[γ-33P]-ATP mixture • 5 μl of test sample in 10% DMSO • 10 μl of enzyme/substrate mixture
The assay for all enzymes contained 60 mM HEPES-NaOH, pH 7.5, 3 mM MgCl2, 3 mM MnCl2, 3 μM Na-orthovanadate, 1.2 mM DTT, 50 μg/ml PEG20000, 1 μM ATP/[γ-33P]-ATP (approx. […] per well), protein kinase, and substrate. All PKC assays (except the PKC-mu and the PKC-nu assay) additionally contained 1 mM CaCl2, 4 mM EDTA, 5 μg/ml Phosphatidylserine and 1 μg/ml 1,2-Dioleyl-glycerol. The MYLK2, CAMK1D, CAMK2A, CAMK2B, CAMK2D, CAMK4, CAMKK2, DAPK2 and EEF2K assays additionally contained 1 μg/ml Calmodulin and 0.5 mM CaCl2. The PRKG1 and PRKG2 assays additionally contained 1 μM cGMP.
The protein kinases were expressed either in Sf9 insect cells or in E. coli as recombinant GST-fusion proteins or as His-tagged proteins. All kinases were produced from human cDNAs. Kinases were purified by affinity chromatography using either GSH-agarose (Sigma) or Ni-NTH-agarose (Qiagen). The purity of the protein kinases was examined by SDS-PAGE/coomassie staining. The identity of the protein kinases was checked by mass spectroscopy.
The reaction cocktails were incubated at 30° C. for 60 minutes. The reaction was stopped with 50 μl of 2% (v/v) H3PO4, plates were aspirated and washed two times with 200 μl 0.9% (w/v) NaCl. All assays were performed with a BeckmanCoulter Biomek 2000/SL robotic system.
Incorporation of ^33Pi (counting of “cpm”) was determined with a microplate scintillation counter (Microbeta, Wallac).
For each kinase, the median value of the cpm of three wells with complete reaction cocktails, but without kinase, was defined as “low control” […]. This value reflects unspecific binding of radioactivity to the plate in the absence of protein kinase but in the presence of the substrate. Additionally, for each kinase the median value of the cpm of three other wells with the complete reaction cocktail, but without any compound, was taken as the “high control”, i.e. full activity in the absence of any inhibitor […]. The difference between high and low control of was taken as 100% activity for each kinase. As part of the data evaluation the low control value of each kinase was subtracted from the high control value as well as from their corresponding “compound values”. The residual activity (in %) for each compound well was calculated by using the following formula: Res. Activity (%)=100×[(cpm of compound−low control)/(high control−low control)]

[2] = Homo sapiens, 72 h, read-out: In Vitro IC50 Growth Inhibitory Values, m ± SEM
[3] = mean ± SEM over the 11 human cancer cell lines, MTT, 72 hours, read-out: In Vitro IC50 Growth Inhibitory Values, m ± SEM

Row | IC50 [1, 3] | IC50 ([1]; Homo sapiens, MTT colorimetric assay, read-out: IC50 growth inhibitory values, range depending on the cancer cell line analyzed) | Compound | IC50 [1, 2] | IC50 (Aurora C kinase) | inhibition at 57 µM (Aurora C kinase)
1 |  |  | O=C(OCc1cc(COC(=O)c2ccc(O)c(F)c2)cc(COC(=O)c2ccc(O)c(F)c2)c1)c1ccc(O)c(F)c1 [DLT95-F, [3,5-bis[(4-hydroxy-3-fluoro-benzoyl)oxymethyl]phenyl]methyl 4-hydroxy-3-fluoro-benzoate] | 33 ± 2 µM | 4.7 µM | ≥ 50%
2 |  |  | COc1cc(C(=O)OCc2cc(COC(=O)c3ccc(O)c(OC)c3)cc(COC(=O)c3ccc(O)c(OC)c3)c2)ccc1O [DLT95, [3,5-bis[(4-hydroxy-3-methoxy-benzoyl)oxymethyl]phenyl]methyl 4-hydroxy-3-methoxy-benzoate] |  | 3.3 µM | 
3 |  |  | O=C(OCc1cc(COC(=O)c2ccc(O)c(Cl)c2)cc(COC(=O)c2ccc(O)c(Cl)c2)c1)c1ccc(O)c(Cl)c1 [DLT95-Cl, [3,5-bis[(4-hydroxy-3-chloro-benzoyl)oxymethyl]phenyl]methyl 4-hydroxy-3-chloro-benzoate] | 29 ± 1 µM | 1.8 µM | ≥ 50%
4 | > 1000 µM |  | COc1cc(C(=O)O)ccc1O [vanillic acid, reference compound] |  | > 100 µM | 
5 | 49 µM | 22 to 71 µM | COc1cc(C(=O)OCCCCCCOC(=O)c2ccc(O)c(OC)c2)ccc1O [DLT11, Hexane-1,6-diyl bis-(4-hydroxy-3-methoxybenzoate)] |  |  | 

Row | Compound | IC50 [1, 3] | IC50 ([1]; Homo sapiens, MTT colorimetric assay, read-out: IC50 growth inhibitory values, range depending on the cancer cell line analyzed) | IC50 [1, 2] | IC50 (Aurora C kinase) | inhibition at 57 µM (Aurora C kinase)
6 | COc1cc(C(=O)OCCOC(=O)c2ccc(O)c(OC)c2)ccc1O [DLT1, Ethane-1,2-diyl bis-(4-hydroxy-3-methoxybenzoate)] | 53 µM |  |  |  | 
